Test results as given in US7846928B2, “Substituted pyrazolopyridines and salts thereof, pharmaceutical compositions comprising same, methods of preparing same and uses of same” (Bayer Schering Pharma AG, priority 2006, dated 2010).

Molecular target: Tie2 (Homo sapiens, UniProt Q02763)
Test: Tie-2-Kinase HTRF-Assay without kinase preactivation (assay 2)
Assay type: biochemical
Design: fusion protein of GST and the intracellular domains of Tie-2; GST; made in house; host or cells: insect cells (Hi-5)
Settings: GST-Tie-2 without preactivation, 10 μM ATP; pIC50 = -log IC50 molar
Text: Tie2-inhibitory activity of compounds of the present invention was quantified employing two Tie2 HTRF assay as described in the following paragraphs.
A recombinant fusion protein of GST and the intracellular domains of Tie-2, expressed in insect cells (Hi-5) and purified by Glutathion-Sepharose affinity chromatography was used as kinase. Alternatively, commercially available GST-Tie2-fusion protein (Upstate Biotechnology, Dundee, Scotland) can be used As substrate for the kinase reaction the biotinylated peptide biotin-Ahx-EPKDDAYPLYSDFG (C-terminus in amid form) was used which can be purchased e.g. from the company Biosynthan GmbH (Berlin-Buch, Germany). Detection of phosphorylated product is achieved specifically by a trimeric detection complex consisting of the phosphorylated substrate, streptavidin-XLent (SA-XLent) which binds to biotin, and Europium Cryptate-labeled anti-phosphotyrosine antibody PT66 which binds to phosphorylated tyrosine.
Tie-2 (3.5 ng/measurement point) was incubated for 60 min at 22° C. in the presence of 10 μM adenosine-tri-phosphate (ATP) and 1 μM substrate peptide (biotin-Ahx-EPKDDAYPLYSDFG-NH2) with different concentrations of test compounds (0 μM and concentrations in the range 0.001-20 μM) in 5 μl assay buffer [50 mM Hepes/NaOH pH 7, 10 mM MgCl2, 0.5 mM MnCl2, 1.0 mM dithiothreitol, 0.01% NP40, protease inhibitor mixture (“Complete w/o EDTA” from Roche, 1 tablet per 2.5 ml), 1% (v/v) dimethylsulfoxide]. The reaction was stopped by the addition of 5 μl of an aqueous buffer (25 mM Hepes/NaOH pH 7.5, 0.28% (w/v) bovine serum albumin) containing EDTA (90 mM) and the HTRF (Homogeneous Time Resolved Fluorescence) detection reagents streptavidine-XLent (0.2 μM, from Cis Biointernational, Marcoule, France) and PT66-Eu-Chelate (0.3 ng/μl; a europium-chelate labelled anti-phospho-tyrosine antibody from Perkin Elmer).
The resulting mixture was incubated 1 h at 22° C. to allow the binding of the biotinylated phosphorylated peptide to the streptavidine-XLent and the PT66-Eu-Chelate. Subsequently the amount of phosphorylated substrate peptide was evaluated by measurement of the resonance energy transfer from the PT66-Eu-Chelate to the streptavidine-XLent. Therefore, the fluorescence emissions at 620 nm and 665 nm after excitation at 350 nm was measured in a HTRF reader, e.g. a Rubystar (BMG Labtechnologies, Offenburg, Germany) or a Viewlux (Perkin-Elmer). The ratio of the emissions at 665 nm and at […] was taken as the measure for the amount of phosphorylated substrate peptide. The data were normalised (enzyme reaction without inhibitor=0% inhibition, all other assay components but no enzyme=100% inhibition) and IC50 values were calculated by a 4 parameter fit using an inhouse software.

Sequence of Tie2 (Q02763 770-1124 limits assumed): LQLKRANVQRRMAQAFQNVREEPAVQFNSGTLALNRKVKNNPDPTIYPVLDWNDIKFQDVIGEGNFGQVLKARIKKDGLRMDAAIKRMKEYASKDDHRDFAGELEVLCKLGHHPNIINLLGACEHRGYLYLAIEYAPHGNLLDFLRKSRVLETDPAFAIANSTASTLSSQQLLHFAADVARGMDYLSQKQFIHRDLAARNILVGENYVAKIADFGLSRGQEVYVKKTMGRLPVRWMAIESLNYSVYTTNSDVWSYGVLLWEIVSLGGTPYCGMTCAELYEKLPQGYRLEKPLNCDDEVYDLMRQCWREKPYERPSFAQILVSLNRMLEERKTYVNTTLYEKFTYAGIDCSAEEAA

Q: With `CCc1cccc(NC(=O)Nc2ccc(-c3cc(C(C)(C)C)nc4[nH]ncc34)cc2)c1` [1.1, 1-[4-(6-tert-Butyl-1H-pyrazolo[3,4-b]pyridin-4-yl)-phenyl]-3-(3-ethylphenyl)-urea] as the compound, how does the IC50 read?
A: The IC50 was less than 501 nM.

Q: How did the IC50 turn out when `CC(C)c1cc(-c2ccc(NC(=O)Nc3cccc(C(F)(F)F)c3)cc2)c2cn[nH]c2n1` [1.2, 1-[4-(6-Isopropyl-1H-pyrazolo[3,4-b]pyridin-4-yl)-phenyl]-3-(3-trifluoromethyl-phenyl)-urea] was run?
A: The IC50 was less than 501 nM.

Q: For `CC(C)c1cc(-c2ccc(NC(=O)Nc3cccc(C(F)(F)F)c3)cc2)c2cnn(C)c2n1` [1.3, 1-[4-(6-Isopropyl-1-methyl-1H-pyrazolo[3,4-b]pyridin-4-yl)-phenyl]-3-(3-trifluoromethyl-phenyl)-urea], which IC50 is on record?
A: The IC50 was less than 501 nM.

Q: Which IC50 does the source give for `Cn1ncc2c(-c3ccc(NC(=O)Nc4cccc(C(F)(F)F)c4)cc3)ccnc21` [1.4, 1-[4-(1-Methyl-1H-pyrazolo[3,4-b]pyridin-4-yl)-phenyl]-3-(3-trifluoromethyl-phenyl)-urea] here?
A: Its IC50 is less than 501 nM.

Q: With `Cc1ccc(F)c(NC(=O)Nc2ccc(-c3ccnc4c3cnn4C)cc2)c1` [1.7, 1-(2-Fluoro-5-methyl-phenyl)-3-[4-(1-methyl-1H-pyrazolo[3,4-b]pyridin-4-yl)-phenyl]-urea] as the compound, how does the IC50 read?
A: The IC50 was less than 501 nM.

Q: With `Cn1ncc2c(-c3ccc(NC(=O)Nc4cc(C(F)(F)F)ccc4F)cc3)ccnc21` [1.8, 1-(2-Fluoro-5-trifluoromethyl-phenyl)-3-[4-(1-methyl-1H-pyrazolo[3,4-b]-pyridin-4-yl)-phenyl]-urea] as the compound, how does the IC50 read?
A: Its IC50 is less than 501 nM.

Q: Which IC50 does the source give for `Cc1cccc(NC(=O)Nc2ccc(-c3cc(C(C)(C)C)nc4[nH]ncc34)cc2)c1` [1.11, 1-[4-(6-tert-Butyl-1H-pyrazolo[3,4-b]pyridin-4-yl)-phenyl]-3-m-tolyl-urea] here?
A: The IC50 was 501 to 1000 nM.

Q: Which IC50 does the source give for `CN1CCN(Cc2ccc(NC(=O)Nc3ccc(-c4cc(C(C)(C)C)nc5[nH]ncc45)cc3)cc2C(F)(F)F)CC1` [1.15, 1-[4-(6-tert-Butyl-1H-pyrazolo[3,4-b]pyridin-4-yl)-phenyl]-3-[4-(4-methyl-piperazin-1-ylmethyl)-3-trifluoromethyl-phenyl]-urea] here?
A: The IC50 was less than 501 nM.

Q: How did the IC50 turn out when `Cc1cc(-c2ccc(NC(=O)Nc3cccc(C(F)(F)F)c3)cc2)c2cn[nH]c2n1` [1.18, 1-[4-(6-Methyl-1H-pyrazolo[3,4-b]pyridin-4-yl)-phenyl]-3-(3-trifluoromethyl-phenyl)-urea] was run?
A: The IC50 was less than 501 nM.

Q: Which IC50 does the source give for `O=C(Nc1ccc(-c2ccnc3[nH]ncc23)cc1)Nc1cccc(C(F)(F)F)c1` [1.20, 1-[4-(1H-Pyrazolo[3,4-b]pyridin-4-yl)-phenyl]-3-(3-trifluoromethyl-phenyl)-urea] here?
A: The IC50 was less than 501 nM.

Q: Which IC50 does the source give for `Cc1ccc(F)c(NC(=O)Nc2ccc(-c3ccnc4[nH]ncc34)cc2)c1` [1.22, 1-(2-Fluoro-5-methyl-phenyl)-3-[4-(1H-pyrazolo[3,4-b]pyridin-4-yl)-phenyl]-urea] here?
A: The IC50 was 501 to 1000 nM.

Q: How did the IC50 turn out when `CN1CCC(Oc2ccc(NC(=O)Nc3ccc(-c4ccnc5c4cnn5C)cc3)cc2C(F)(F)F)CC1` [1.23, 1-[4-(1-Methyl-piperidin-4-yloxy)-3-trifluoromethyl-phenyl]-3-[4-(1-methyl-1H-pyrazolo[3,4-b]pyridin-4-yl)-phenyl]-urea] was run?
A: The IC50 was less than 501 nM.

Q: Which IC50 does the source give for `CN1CCN(Cc2ccc(NC(=O)Nc3ccc(-c4ccnc5c4cnn5C)cc3)cc2C(F)(F)F)CC1` [1.24, 1-[4-(4-Methyl-piperazin-1-ylmethyl)-3-trifluoromethyl-phenyl]-3-[4-(1-methyl-1H-pyrazolo[3,4-b]pyridin-4-yl)-phenyl]-urea] here?
A: Its IC50 is less than 501 nM.

Q: `CN(C)C(=O)C1(c2cc(-c3ccc(NC(=O)Nc4cccc(C(F)(F)F)c4)cc3)c3cnn(C)c3n2)CC1` [1.26, 1-(1-Methyl-4-{4-[3-(3-trifluoromethyl-phenyl)-ureido]-phenyl}-1H-pyrazolo[3,4-b]pyridin-6-yl)-cyclopropane-carboxylic acid dimethylamide] was tested. Which IC50 did it give?
A: Its IC50 is less than 501 nM.

Q: `Cc1ccc(F)c(NC(=O)Nc2ccc(-c3cc(C4(C(=O)N(C)C)CC4)nc4c3cnn4C)cc2)c1` [1.29, 1-(4-{4-[3-(2-Fluoro-5-methyl-phenyl)-ureido]-phenyl}-1-methyl-1H-pyrazolo[3,4-b]pyridin-6-yl)-cyclopropane-carboxylic acid dimethylamide] was tested. Which IC50 did it give?
A: The IC50 was less than 501 nM.

Q: How did the IC50 turn out when `CN1CCN(Cc2ccc(NC(=O)Nc3ccc(-c4ccnc5[nH]ncc45)cc3)cc2C(F)(F)F)CC1` [1.33, 1-[4-(4-Methyl-piperazin-1-yl-methyl)-3-trifluoromethyl-phenyl]-3-[4-(1H-pyrazolo[3,4-b]pyridin-4-yl)-phenyl]-urea] was run?
A: The IC50 was less than 501 nM.

Q: `Cn1ncc2c(-c3ccc(NC(=O)Nc4cccc(C(F)(F)F)c4)cc3)cc(C3CCC3)nc21` [1.37, 1-[4-(6-Cyclobutyl-1-methyl-1H-pyrazolo[3,4-b]pyridin-4-yl)-phenyl]-3-(3-trifluoromethyl-phenyl)-urea] was tested. Which IC50 did it give?
A: The IC50 was less than 501 nM.

Q: How did the IC50 turn out when `Cn1ncc2c(-c3ccc(NC(=O)Nc4cccc(C(F)(F)F)c4)cc3)cc(C3CCCCC3)nc21` [1.38, 1-[4-(6-Cyclohexyl-1-methyl-1H-pyrazolo[3,4-b]pyridin-4-yl)-phenyl]-3-(3-trifluoromethyl-phenyl)-urea] was run?
A: Its IC50 is less than 501 nM.

Q: With `Cc1cc(-c2ccc(NC(=O)Nc3cc(F)cc(C(F)(F)F)c3)cc2)c2cnn(C)c2n1` [2.4, 1-[4-(1,6-Dimethyl-1H-pyrazolo[3,4-b]pyridin-4-yl)-phenyl]-3-(3-fluoro-5-trifluoromethyl-phenyl)-urea] as the compound, how does the IC50 read?
A: The IC50 was less than 501 nM.

Q: How did the IC50 turn out when `Cc1cc(-c2ccc(NC(=O)Nc3ccc(F)c(C(F)(F)F)c3)cc2)c2cnn(C)c2n1` [2.5, 1-[4-(1,6-Dimethyl-1H-pyrazolo[3,4-b]pyridin-4-yl)-phenyl]-3-(4-fluoro-3-trifluoromethyl-phenyl)-urea] was run?
A: The IC50 was 501 to 1000 nM.

Q: `COc1ccc(C(F)(F)F)cc1NC(=O)Nc1ccc(-c2cc(C)nc3c2cnn3C)cc1` [2.7, 1-[4-(1,6-Dimethyl-1H-pyrazolo[3,4-b]pyridin-4-yl)-phenyl]-3-(2-methoxy-5-trifluoromethyl-phenyl)-urea] was tested. Which IC50 did it give?
A: Its IC50 is less than 501 nM.

Q: Which IC50 does the source give for `Cn1ncc2c(-c3ccc(NC(=O)Nc4cccc(C(F)(F)F)c4)cc3)cc(CN3CCOCC3)nc21` [3.2, 1-[4-(1-Methyl-6-morpholin-4-ylmethyl-1H-pyrazolo[3,4-b]pyridin-4-yl)-phenyl]-3-(3-trifluoromethyl-phenyl)-urea] here?
A: The IC50 was less than 501 nM.

Q: `CCc1cccc(NC(=O)Nc2ccc(-c3cc(CN4CCOCC4)nc4c3cnn4C)cc2)c1` [3.4, 1-(3-Ethyl-phenyl)-3-[4-(1-methyl-6-morpholin-4-ylmethyl-1H-pyrazolo[3,4-b]pyridin-4-yl)-phenyl]-urea] was tested. Which IC50 did it give?
A: Its IC50 is less than 501 nM.

Q: For `Cc1ccc(F)c(NC(=O)Nc2ccc(-c3cc(CN4CCOCC4)nc4c3cnn4C)cc2)c1` [3.5, 1-(2-Fluoro-5-methyl-phenyl)-3-[4-(1-methyl-6-morpholin-4-ylmethyl-1H-pyrazolo[3,4-b]pyridin-4-yl)-phenyl]-urea], which IC50 is on record?
A: The IC50 was less than 501 nM.
